Source: PubChem BioAssay (NCI)
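Tested at 5 concentrations; 48 h exposure; 96-well plates; endpoints linearly interpolated, else capped at highest concentration. At the TGI there is no net growth.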

Tests used:
Experiment in all cases: NCI tumour cell line growth inhibition, 48 h
SK-MEL-28 melanoma = tested on: SK-MEL-28 melanoma
CAKI-1 renal = tested on: CAKI-1 renal
MALME-3M melanoma = tested on: MALME-3M melanoma
M14 melanoma = tested on: M14 melanoma
DU-145 prostate = tested on: DU-145 prostate
UACC-62 melanoma = tested on: UACC-62 melanoma
SF-539 CNS = tested on: SF-539 CNS
TK-10 renal = tested on: TK-10 renal
RPMI-8226 leukemia = tested on: RPMI-8226 leukemia
ACHN renal = tested on: ACHN renal
OVCAR-8 ovarian = tested on: OVCAR-8 ovarian
U251 CNS = tested on: U251 CNS
MCF7 breast = tested on: MCF7 breast
786-0 renal = tested on: 786-0 renal
HOP-92 NSCLC = tested on: HOP-92 NSCLC
T-47D breast = tested on: T-47D breast
HCC-2998 colon = tested on: HCC-2998 colon
MDA-N = tested on: MDA-N
HOP-62 NSCLC = tested on: HOP-62 NSCLC
KM12 colon = tested on: KM12 colon
MDA-MB-435 = tested on: MDA-MB-435
A549 NSCLC = tested on: A549 NSCLC
IGROV1 ovarian = tested on: IGROV1 ovarian
CCRF-CEM leukemia = tested on: CCRF-CEM leukemia
A498 renal = tested on: A498 renal
SF-295 CNS = tested on: SF-295 CNS
OVCAR-3 ovarian = tested on: OVCAR-3 ovarian
OVCAR-5 ovarian = tested on: OVCAR-5 ovarian
UACC-257 melanoma = tested on: UACC-257 melanoma
BT-549 breast = tested on: BT-549 breast
SK-MEL-2 melanoma = tested on: SK-MEL-2 melanoma
HS 578T breast = tested on: HS 578T breast
SN12C renal = tested on: SN12C renal
SNB-75 CNS = tested on: SNB-75 CNS
MDA-MB-231 breast = tested on: MDA-MB-231 breast
SW-620 colon = tested on: SW-620 colon
SR leukemia = tested on: SR leukemia
NCI-H460 lung = tested on: NCI-H460 lung
NCI-H23 lung = tested on: NCI-H23 lung
EKVX NSCLC = tested on: EKVX NSCLC
SNB-19 CNS = tested on: SNB-19 CNS
SF-268 CNS = tested on: SF-268 CNS
RXF 393 renal = tested on: RXF 393 renal
MOLT-4 leukemia = tested on: MOLT-4 leukemia
HL-60(TB) leukemia = tested on: HL-60(TB) leukemia
LOX IMVI melanoma = tested on: LOX IMVI melanoma
SK-MEL-5 melanoma = tested on: SK-MEL-5 melanoma
PC-3 prostate = tested on: PC-3 prostate
NCI-H226 lung = tested on: NCI-H226 lung
OVCAR-4 ovarian = tested on: OVCAR-4 ovarian
NCI/ADR-RES ovarian = tested on: NCI/ADR-RES ovarian
HCT-15 colon = tested on: HCT-15 colon
COLO 205 colon = tested on: COLO 205 colon
K-562 leukemia = tested on: K-562 leukemia
SK-OV-3 ovarian = tested on: SK-OV-3 ovarian
HCT-116 colon = tested on: HCT-116 colon
HT29 colon = tested on: HT29 colon
NCI-H522 lung = tested on: NCI-H522 lung
DMS 114 small cell lung = tested on: DMS 114 small cell lung
SNB-78 CNS = tested on: SNB-78 CNS
M19-MEL melanoma = tested on: M19-MEL melanoma
DLD-1 colon = tested on: DLD-1 colon
DMS 273 small cell lung = tested on: DMS 273 small cell lung
KM20L2 colon = tested on: KM20L2 colon
HOP-18 NSCLC = tested on: HOP-18 NSCLC
UO-31 renal = tested on: UO-31 renal
LXFL 529 NSCLC = tested on: LXFL 529 NSCLC

For O=C1CCSc2nc(-c3ccc4c(c3)OCO4)nn21, the TGI (SK-MEL-28 melanoma) was > 10 µM, the TGI (CAKI-1 renal) was > 10 µM and the TGI (MALME-3M melanoma) was > 10 µM. For the same compound, the TGI (M14 melanoma) was > 10 µM, the TGI (DU-145 prostate) was > 10 µM and the TGI (UACC-62 melanoma) was > 10 µM. The TGI (SF-539 CNS) was > 10 µM, the TGI (TK-10 renal) was > 10 µM and the TGI (RPMI-8226 leukemia) was > 10 µM. For the same compound, the TGI (ACHN renal) was > 10 µM, the TGI (OVCAR-8 ovarian) was > 10 µM and the TGI (U251 CNS) was > 10 µM. For the same compound, the TGI (MCF7 breast) was > 10 µM, the TGI (786-0 renal) was > 10 µM and the TGI (HOP-92 NSCLC) was > 10 µM. For the same compound, the TGI (T-47D breast) was > 10 µM, the TGI (HCC-2998 colon) was > 10 µM and the TGI (MDA-N) was > 10 µM. The TGI (HOP-62 NSCLC) was > 10 µM, the TGI (KM12 colon) was > 10 µM and the TGI (MDA-MB-435) was > 10 µM. For the same compound, the TGI (A549 NSCLC) was > 10 µM, the TGI (IGROV1 ovarian) was > 10 µM and the TGI (CCRF-CEM leukemia) was > 10 µM. For the same compound, the TGI (A498 renal) was > 10 µM, the TGI (SF-295 CNS) was > 10 µM and the TGI (OVCAR-3 ovarian) was > 10 µM. For the same compound, the TGI (OVCAR-5 ovarian) was > 10 µM, the TGI (UACC-257 melanoma) was > 10 µM and the TGI (BT-549 breast) was > 10 µM. For the same compound, the TGI (SK-MEL-2 melanoma) was > 10 µM, the TGI (HS 578T breast) was > 10 µM and the TGI (SN12C renal) was > 10 µM. For the same compound, the TGI (SNB-75 CNS) was > 10 µM, the TGI (MDA-MB-231 breast) was > 10 µM and the TGI (SW-620 colon) was > 10 µM. The TGI (SR leukemia) was > 10 µM, the TGI (NCI-H460 lung) was > 10 µM and the TGI (NCI-H23 lung) was > 10 µM. For the same compound, the TGI (EKVX NSCLC) was > 10 µM, the TGI (SNB-19 CNS) was > 10 µM and the TGI (SF-268 CNS) was > 10 µM. For the same compound, the TGI (RXF 393 renal) was > 10 µM, the TGI (MOLT-4 leukemia) was > 10 µM and the TGI (HL-60(TB) leukemia) was > 10 µM. The TGI (LOX IMVI melanoma) was > 10 µM, the TGI (SK-MEL-5 melanoma) was > 10 µM and the TGI (PC-3 prostate) was > 10 µM. For the same compound, the TGI (NCI-H226 lung) was > 10 µM, the TGI (OVCAR-4 ovarian) was > 10 µM and the TGI (NCI/ADR-RES ovarian) was > 10 µM. The TGI (HCT-15 colon) was > 10 µM, the TGI (COLO 205 colon) was > 10 µM and the TGI (K-562 leukemia) was > 10 µM. The TGI (SK-OV-3 ovarian) was > 10 µM, the TGI (HCT-116 colon) was > 10 µM and the TGI (HT29 colon) was > 10 µM. The TGI (NCI-H522 lung) was > 10 µM.
In the case of CCc1nc2ccccc2c(=O)n1/N=C(\N=Nc1ccc(Cl)cc1)c1ccccc1, the TGI (SK-MEL-28 melanoma) is reported as > 100 µM, the TGI (CAKI-1 renal) is reported as 46.4 µM and the TGI (MALME-3M melanoma) is reported as 90 µM. The TGI (M14 melanoma) was > 100 µM, the TGI (UACC-62 melanoma) was > 100 µM and the TGI (SF-539 CNS) was 51.8 µM. For the same compound, the TGI (TK-10 renal) was 78.3 µM, the TGI (RPMI-8226 leukemia) was > 100 µM and the TGI (ACHN renal) was > 92.4 µM. For the same compound, the TGI (OVCAR-8 ovarian) was > 100 µM, the TGI (U251 CNS) was > 87.8 µM and the TGI (786-0 renal) was 59.2 µM. For the same compound, the TGI (HOP-92 NSCLC) was 46.2 µM, the TGI (DMS 114 small cell lung) was 59.3 µM and the TGI (HCC-2998 colon) was 95.6 µM. The TGI (SNB-78 CNS) was 71.1 µM, the TGI (HOP-62 NSCLC) was 69.4 µM and the TGI (KM12 colon) was 34.7 µM. The TGI (A549 NSCLC) was 98.7 µM, the TGI (IGROV1 ovarian) was > 100 µM and the TGI (M19-MEL melanoma) was > 100 µM. For the same compound, the TGI (CCRF-CEM leukemia) was > 100 µM, the TGI (A498 renal) was > 100 µM and the TGI (SF-295 CNS) was 53.6 µM. For the same compound, the TGI (OVCAR-3 ovarian) was 57.1 µM, the TGI (OVCAR-5 ovarian) was > 100 µM and the TGI (UACC-257 melanoma) was 59.6 µM. For the same compound, the TGI (SK-MEL-2 melanoma) was 82.5 µM, the TGI (SN12C renal) was > 100 µM and the TGI (DLD-1 colon) was > 100 µM. For the same compound, the TGI (SNB-75 CNS) was 40.1 µM, the TGI (SW-620 colon) was > 100 µM and the TGI (DMS 273 small cell lung) was 50 µM. For the same compound, the TGI (KM20L2 colon) was 27.7 µM, the TGI (NCI-H460 lung) was > 100 µM and the TGI (HOP-18 NSCLC) was 71 µM. For the same compound, the TGI (NCI-H23 lung) was > 100 µM, the TGI (EKVX NSCLC) was 75.2 µM and the TGI (SNB-19 CNS) was 82.6 µM. The TGI (SF-268 CNS) was 95.3 µM, the TGI (UO-31 renal) was 76.8 µM and the TGI (RXF 393 renal) was > 75.8 µM. For the same compound, the TGI (MOLT-4 leukemia) was > 100 µM, the TGI (HL-60(TB) leukemia) was > 100 µM and the TGI (LOX IMVI melanoma) was 40.5 µM. It also gave a TGI (SK-MEL-5 melanoma) of 44.6 µM, a TGI (NCI-H226 lung) of 63.4 µM and a TGI (LXFL 529 NSCLC) of 50.8 µM. For the same compound, the TGI (OVCAR-4 ovarian) was 75.6 µM, the TGI (HCT-15 colon) was > 100 µM and the TGI (COLO 205 colon) was > 100 µM. The TGI (SK-OV-3 ovarian) was 62 µM, the TGI (HCT-116 colon) was 64.5 µM and the TGI (HT29 colon) was 36.9 µM. For the same compound, the TGI (NCI-H522 lung) was > 69.3 µM.
